Measurements: US20230234928A1, “Novel Compounds for Treating Fibrosis and Inflammatory Conditions” (MAKScientific, LLC, priority 2020, published 2023)
“And” between values parts separate entries of the source, which are not always exact repeats. Equal entries are not always repeated.

Assays:
[1] = target: T1, CB1 (Mus musculus, UniProt P47746); assay: in vivo CB1 antagonism (hypothermia) in male CD1 mice; settings: 10 mg/kg i.p. test compound, 30 mg/kg Δ9-THC, male CD-1 mice, rectal temperature
T1 construct: tissue Charles River; host or cells: whole animal, male CD-1 mice
Procedure: Male CD-1 mice (Charles River, Wilmington, Mass., USA) aged 4-6 weeks weighing between 25-35 gm were chosen for in vivo CB1 antagonism testing. The mice were housed 4 per cage with free access to food and water. The temperature of the vivarium was 25° C. with a non-reversed 12 hrs light/dark cycle (lights on 7 am). Mice were habituated to the vivarium for at least one week before any experiments were performed. All experimental procedures were pre-approved by The Animal Care and Use Committee of Northeastern University, Boston, Mass., USA. The “Principles of Animal Laboratory Care” (National Institute of Health 1996) was followed. The test compound (10 mg/kg) was dissolved in 4% dimethyl sulfoxide, followed by 8% Tween-80 and 8% propylene glycol. Saline was added slowly to this solution with sonication prior to administration. Δ^9-THC was initially dissolved in 2% dimethyl sulfoxide, followed by 4% Tween-80 and 4% propylene glycol. Saline was added slowly to this drug solution with sonication prior to administration. All administrations were i.p. at a volume of 10 ml/kg. […] Core temperature was measured using a rectal probe of a digital laboratory thermometer, RET-3-ISO, type T thermocouple (Physitemp Instruments Inc., Clifton, N.J.). The probe was inserted 2 cm into the rectum for ≈20 to 30 seconds at which time the rectal temperature readings had stabilized.

[2] = test system: C57BL/6 mice; assay: diabetic (STZ) high-fat diet mouse NASH model; assay type: in vivo; settings: 10 mg/kg PO daily; for fibrosis scores: vs control group
Procedure: Timed pregnant female C57BL/6 mice (Jackson Laboratories, USA) were obtained and housed with a cardboard hut for birthing and nursing of pups (enrichment), in an AAALAC-accredited vivarium, prefilled with corn cob bedding on a 12-hour light-dark at 68-74° F. and 30-70% humidity. Pregnant female mice were fed water and a standard rodent diet (Teklad irradiated 2918) ad libitum consisting of 18% protein, 5% fat, and 5% fiber. Three days post birth, pups from all litters received streptozotocin (STZ), i.p. at 200 mg/kg, to induce a mild to moderate hyperglycemia and insulin insufficiency. Random blood glucose was measured at weaning when pups were 25 days old. At weaning, mice were fed water and a standard rodent diet (Teklad irradiated 2918) ad libitum consisting of 18% protein, 5% fat, and 5% fiber. At 4 weeks of age, male mice were randomized into 7 study groups based on a random blood glucose (RBG) between 200-750 mg/dl and were switched from the standard rodent diet to the modified high fat diet (HFD), Research Diets D09100310 for the remainder of the study. Following 3 weeks of HFD feeding, test article and vehicle control dose administration was initiated and continued for up to 9 weeks. Body weights were measured at least twice a week from dose initiation through study end/termination. HFD was changed weekly with the old food being discarded. Animals had random blood glucose measured every 3 weeks and at termination. Clinical observations were performed daily from receipt/birth and continued through study end. Compound 1 and rimonabant were stored at −20° C. prior to drug preparation. Following three weeks of modified diet feeding, dose initiation of the compounds began and continued for up to 9 weeks. Test compounds were dissolved in 2% dimethyl sulfoxide, followed by 8% Tween-80 and 8% propylene glycol. Saline was added slowly to this solution with sonication prior to administration. Animals were dosed at 10 mg/kg via oral gavage (PO), daily, for up to 9 weeks.
Livers were scored for both NAS and NASH parameters. […] Fibrosis was observed across all study groups. […] Lobular inflammation was present across all NASH study groups thus indicating inflammatory cell infiltration. Following 9 weeks of treatment with Compound 1, lobular inflammation was reduced.

[3] = target: T2, CB1 cannabinoid receptor (Homo sapiens, UniProt P21554); assay: CB1 competition-equilibrium binding using [3H]CP-55,940; settings: competition binding with [3H]CP-55,940; FIG. 1: hCB1-HEK292 cells; read-out: CB1 cannabinoid receptor binding affinity (Ki)
T2 construct: expressed in transfected cells; host or cells: HEK293
Procedure: (§1) HEK293 cells expressing hCB1, hCB2 or mCB2 receptor are used for membrane preparations according to the method described in J Neurochem 1999, 72, (5), 2032-8, herein incorporated by reference in its entirety. The resulting pellet is resuspended in 10 mM Tris-chloride, pH 7.4 with 5 mM MgCl2 and 2 mM EDTA (TME), and stored at −80° C. for no longer than two months. Protein content is assayed by using the Bio-Rad DC protein assay according to the manufacturer's protocol.
Frozen rat brains (CB1 source) are obtained from Pel-Freeze Biologicals (Rogers, Ak.) and stored at −80° C. until use. […]
(§2) The compound was tested for its ability to bind to CB1 and CB2 receptors using rat brain or HEK293 cell membranes expressing hCB2 and mCB2 membrane preparations, respectively, as described in J Med Chem 1999, 42, (4), 769-776, J Med Chem 1994, 37, (23), 3867-70 and Life Sci 1995, 56, (23-24), 1957-62 (each herein incorporated by reference in its entirety) via competition-equilibrium binding using [^3H]CP-55,940. The results were analyzed using nonlinear regression to determine the actual IC50 of the ligand (Prizm by GraphPad Software, Inc.) and the Ki values are calculated from the IC50 as described in Biochemical Pharmacology 1973, 22, (23), 3099-3108; herein incorporated by reference in its entirety.

[4] = target: CB2 cannabinoid receptor (UniProt P34972); assay: CB2 competition-equilibrium binding using [3H]CP-55,940; settings: competition binding with [3H]CP-55,940; read-out: CB2 cannabinoid receptor binding affinity (Ki)
Procedure: as §1, §2

T2 sequence (P21554 whole entry): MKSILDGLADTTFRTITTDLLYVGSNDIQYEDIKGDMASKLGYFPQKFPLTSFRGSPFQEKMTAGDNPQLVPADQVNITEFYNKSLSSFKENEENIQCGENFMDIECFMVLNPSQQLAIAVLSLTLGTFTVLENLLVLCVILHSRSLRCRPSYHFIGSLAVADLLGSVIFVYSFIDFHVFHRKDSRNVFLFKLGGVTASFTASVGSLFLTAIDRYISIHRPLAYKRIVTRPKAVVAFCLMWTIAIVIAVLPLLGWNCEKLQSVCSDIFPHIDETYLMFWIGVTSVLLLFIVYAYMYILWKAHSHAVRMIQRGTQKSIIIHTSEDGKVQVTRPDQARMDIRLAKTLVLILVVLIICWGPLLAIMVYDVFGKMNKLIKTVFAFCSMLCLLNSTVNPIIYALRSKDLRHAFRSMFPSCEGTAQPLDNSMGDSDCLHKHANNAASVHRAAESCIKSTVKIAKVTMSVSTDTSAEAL
T1 sequence (P47746 whole entry): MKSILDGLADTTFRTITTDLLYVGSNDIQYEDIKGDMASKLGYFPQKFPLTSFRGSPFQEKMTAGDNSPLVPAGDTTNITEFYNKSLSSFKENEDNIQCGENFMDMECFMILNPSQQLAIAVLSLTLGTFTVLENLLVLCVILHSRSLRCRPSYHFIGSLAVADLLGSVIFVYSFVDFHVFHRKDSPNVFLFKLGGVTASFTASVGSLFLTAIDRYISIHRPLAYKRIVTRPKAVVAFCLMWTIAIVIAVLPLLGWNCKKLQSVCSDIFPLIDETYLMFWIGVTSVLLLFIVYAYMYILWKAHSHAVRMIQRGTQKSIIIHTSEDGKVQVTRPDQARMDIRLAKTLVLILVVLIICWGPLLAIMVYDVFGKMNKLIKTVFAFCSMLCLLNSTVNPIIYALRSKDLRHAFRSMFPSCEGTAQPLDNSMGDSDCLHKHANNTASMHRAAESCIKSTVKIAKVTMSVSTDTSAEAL

Structure (SMILES)	antagonism of hypothermic effects induced by the CB1 agonist Δ9-THC [1]	lobular inflammation ([2]; 9 weeks of treatment, liver)	steatosis ([2]; 9 weeks of treatment, liver)	fibrosis scores ([2]; 9 weeks of treatment, liver)	inflammation and fibrosis (overall) ([2]; up to 9 weeks)	animal survival ([2]; up to 9 weeks, compared to rimonabant)	Ki [3]	Ki [4] [nM]
Cc1c(C(=O)NN2CCS(=O)(=O)CC2)nc(-c2ccc(Cl)cc2Cl)n1-c1ccc(C#CCCC#N)cc1 [Compound 1, 1-(4-(4-cyanobut-1-yn-1-yl)phenyl)-2-(2,4-dichlorophenyl)-N-(1,1-dioxidothiomorpholino)-5-methyl-1H-imidazole-4-carboxamide]	inability of 10 mg/kg of compound 1 to antagonize the hypothermic effects	reduced	decreased	statistically significant when compared to the control group	markedly attenuated or delayed the inflammation and fibrosis	increased animal survival as compared to rimonabant	1 nM and ~1 nM	> 1000
Cc1c(C(=O)NN2CCCCC2)nn(-c2ccc(Cl)cc2Cl)c1-c1ccc(Cl)cc1 [rimonabant, 5-(4-chlorophenyl)-1-(2,4-dichlorophenyl)-4-methyl-N-(piperidin-1-yl)-1H-pyrazole-3-carboxamide, reference compound]			decreased	statistically significant when compared to the control group				
